Assay results as given in ChEMBL document CHEMBL1137463, “Discovery and structure-activity relationships of new steroidal compounds bearing a carboxy-terminal side chain as androgen receptor pure antagonists” (Bioorg Med Chem Lett, 2007).

Assays:
Androgen receptor [1] = biological target: T1, Androgen receptor (Homo sapiens, UniProt P10275); test: biochemical
T1 sequence (P10275 whole entry): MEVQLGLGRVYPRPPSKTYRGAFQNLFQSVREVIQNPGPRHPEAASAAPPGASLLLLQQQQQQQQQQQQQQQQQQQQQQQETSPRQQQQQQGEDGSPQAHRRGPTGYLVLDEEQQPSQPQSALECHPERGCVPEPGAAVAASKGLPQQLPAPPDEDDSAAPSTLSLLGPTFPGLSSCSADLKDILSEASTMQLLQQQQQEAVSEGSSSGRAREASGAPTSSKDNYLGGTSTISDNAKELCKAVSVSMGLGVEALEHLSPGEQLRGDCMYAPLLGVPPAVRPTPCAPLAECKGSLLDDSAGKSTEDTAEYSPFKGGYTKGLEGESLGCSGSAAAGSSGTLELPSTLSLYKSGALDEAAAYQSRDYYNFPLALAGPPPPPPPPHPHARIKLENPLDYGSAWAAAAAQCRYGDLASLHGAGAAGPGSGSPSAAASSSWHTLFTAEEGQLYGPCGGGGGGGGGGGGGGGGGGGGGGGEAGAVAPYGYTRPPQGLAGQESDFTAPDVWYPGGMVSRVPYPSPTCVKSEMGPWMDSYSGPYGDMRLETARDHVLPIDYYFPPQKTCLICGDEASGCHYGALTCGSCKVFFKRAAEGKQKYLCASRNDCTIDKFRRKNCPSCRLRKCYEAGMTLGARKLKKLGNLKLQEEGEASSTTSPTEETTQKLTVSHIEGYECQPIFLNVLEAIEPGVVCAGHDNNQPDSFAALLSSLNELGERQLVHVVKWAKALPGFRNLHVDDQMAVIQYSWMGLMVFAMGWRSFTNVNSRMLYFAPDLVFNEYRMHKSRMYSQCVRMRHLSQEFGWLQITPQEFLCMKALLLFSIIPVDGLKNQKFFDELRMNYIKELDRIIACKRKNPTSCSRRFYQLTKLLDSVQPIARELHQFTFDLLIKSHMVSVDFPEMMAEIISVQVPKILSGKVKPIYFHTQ
Description: Displacement of [3H]mibolerone from human androgen receptor expressed in CHOK1 cells

[2] = biological target: T2, Androgen receptor (Homo sapiens) (UniProt P10275); conditions: HeLa
T2 sequence (whole entry): T1 sequence (P10275 whole entry)
Description: Agonist activity at human androgen receptor expressed in HeLa cells assessed as five times increase in transcriptional activity by reporter gene assay

Androgen receptor [3] = biological target: T1, Androgen receptor
Description: Antagonist activity at human androgen receptor expressed in HeLa cells assessed as inhibition of dihydrotestosterone induced transcriptional activity by reporter gene assay

Mus musculus [4] = test: Inhibition of testosterone propionate-stimulated seminal vesicle weight gain in castrated mouse at 1 mg/body, sc; format: functional
Mus musculus [5] = test: Inhibition of testosterone propionate-stimulated seminal vesicle weight gain in castrated mouse at 3 mg/body, sc; format: functional
Mus musculus [6] = test: Inhibition of testosterone propionate-stimulated seminal vesicle weight gain in castrated mouse at 10 mg/body, sc; format: functional

Structure (SMILES) | IC50 (Androgen receptor [1]) [nM] | FI5 [2] [nM] | IC50 (Androgen receptor [3]) [nM] | Inhibition (Mus musculus [4]) [%] | Inhibition (Mus musculus [5]) [%] | Inhibition (Mus musculus [6]) [%]
C[C@]12CCC(=O)C=C1C[C@@H](CCCCc1cccc(OCCCCC(=O)O)c1)[C@@H]1[C@@H]2CC[C@@]2(C)[C@H]1CC[C@]2(C)O | 350 | > 10000 | – | – | – | –
C[C@]12CCC(=O)C=C1C[C@@H](CCCc1cccc(OCCCC(=O)O)c1)[C@@H]1[C@@H]2CC[C@@]2(C)[C@H]1CC[C@]2(C)O | – | 1500 | 5800 | – | – | –
CN(C)C(=O)CCCCCCC[C@@H]1C[C@H]2CC(=O)CC[C@]2(C)[C@H]2CC[C@]3(C)[C@@H](O)CC[C@H]3[C@H]12 | 260 | > 10000 | 190 | – | – | –
C[C@]12CCC(=O)C=C1C[C@@H](CCCc1ccc(OCCCCC(=O)O)cc1)[C@@H]1[C@@H]2CC[C@@]2(C)[C@H]1CC[C@]2(C)O | 660 | 3200 | 300 | – | – | –
C[C@]12CCC(=O)C[C@@H]1C[C@@H](CCCCCCCCCC(=O)O)[C@@H]1[C@@H]2CC[C@]2(C)[C@@H](O)CC[C@@H]12 | 350 | 120 | 920 | – | – | –
C[C@]12CCC(=O)C=C1C[C@@H](CCCc1ccc(OCCC(=O)O)cc1)[C@@H]1[C@@H]2CC[C@@]2(C)[C@H]1CC[C@]2(C)O | 300 | 2500 | 170 | – | – | –
C[C@]12CCC(=O)C=C1C[C@@H](CCCCCCCCCC(=O)O)[C@@H]1[C@@H]2CC[C@@]2(C)[C@H]1CC[C@]2(C)O | 600 | > 10000 | 2000 | – | – | –
C[C@]12CCC(=O)C=C1C[C@@H](CCCCc1ccc(OCCCC(=O)O)cc1)[C@@H]1[C@@H]2CC[C@@]2(C)[C@H]1CC[C@]2(C)O | – | 170 | 850 | – | – | –
C[C@]12CCC(=O)C[C@@H]1C[C@@H](CCCCCCCCC(CCCC(F)(F)C(F)(F)F)C(=O)O)[C@@H]1[C@@H]2CC[C@]2(C)[C@@H](O)CC[C@@H]12 (stereo not given in full) | 410 | 13 | > 10000 | – | – | –
C[C@]12CCC(=O)C[C@@H]1C[C@@H](CCCCCCCC(=O)O)[C@@H]1[C@@H]2CC[C@]2(C)[C@@H](O)CC[C@@H]12 | 660 | 110 | 730 | – | – | –
C[C@]12CCC(=O)C=C1C[C@@H](CCCc1ccc(OCCCC(=O)O)cc1)[C@@H]1[C@@H]2CC[C@@]2(C)[C@H]1CC[C@]2(C)O | 430 | > 10000 | 660 | – | – | –
C[C@]12CCC(=O)C=C1C[C@@H](CCCCc1ccc(OCCCCCC(=O)O)cc1)[C@@H]1[C@@H]2CC[C@@]2(C)[C@H]1CC[C@]2(C)O | – | 100 | 420 | – | – | –
C[C@]12CCC(=O)C=C1C[C@@H](CCCCc1cccc(OCCCCCC(=O)O)c1)[C@@H]1[C@@H]2CC[C@@]2(C)[C@H]1CC[C@]2(C)O | 120 | > 10000 | 530 | – | – | –
CC(C)(O)C(=O)Nc1ccc([N+](=O)[O-])c(C(F)(F)F)c1 [HYDROXYFLUTAMIDE] | – | 1000 | – | 6.7 | 0.8 | 6.4
C[C@]12CCC(=O)C=C1C[C@@H](CCCCc1ccc(OCCCCC(=O)O)cc1)[C@@H]1[C@@H]2CC[C@@]2(C)[C@H]1CC[C@]2(C)O | 96 | 2000 | 250 | – | – | –
C[C@]12CCC(=O)C=C1C[C@@H](CCCCc1cccc(OCCCC(=O)O)c1)[C@@H]1[C@@H]2CC[C@@]2(C)[C@H]1CC[C@]2(C)O | 670 | > 10000 | 920 | – | – | –
